Test results: ChEMBL document CHEMBL1129671, “Substituted (pyrroloamino)pyridines: potential agents for the treatment of Alzheimer's disease” (J Med Chem, 1996)

Experiments:
[1] = molecular target: Muscarinic acetylcholine receptor; assay: Inhibition of radioligand [3H]QNB binding to muscarinic acetylcholine receptor in the rat forebrain in the presence of zinc
[2] = molecular target: Muscarinic acetylcholine receptor; assay: Inhibition of radioligand [3H]QNB binding (competitive inhibition) to muscarinic acetylcholine receptor in the rat forebrain in the absence of zinc
[3] = system: Mus musculus; assay: Evaluated for the prevention of TBZ ptosis by intraperitoneal administration in mice; type: functional; conditions: ip
[4] = system: Mus musculus; assay: (§1) Antagonistic activity against scopolamine-induced behavioral deficits in mice by subcutaneous administration at a concentration of 5 mg/kg; type: functional
[5] = system: Mus musculus; assay: as §1; type: functional; remark: listed apart in the source
[6] = system: Mus musculus; assay: Antagonistic activity against scopolamine-induced behavioral deficits in mice by subcutaneous administration at a concentration of 0.63 mg/kg; type: functional
[7] = system: Mus musculus; assay: Antagonistic activity against scopolamine-induced behavioral deficits in mice by subcutaneous administration at a concentration of 0.16 mg/kg; type: functional
[8] = system: Mus musculus; assay: Antagonistic activity against scopolamine-induced behavioral deficits in mice by subcutaneous administration at a concentration of 0.31 mg/kg; type: functional
[9] = system: Mus musculus; assay: Antagonistic activity against scopolamine-induced behavioral deficits in mice by subcutaneous administration at a concentration of 5.0 mg/kg; type: functional
[10] = system: Mus musculus; assay: Antagonistic activity against scopolamine-induced behavioral deficits in mice by subcutaneous administration at a concentration of 1.25 mg/kg; type: functional
[11] = system: Mus musculus; assay: Antagonistic activity against scopolamine-induced behavioral deficits in mice by subcutaneous administration at a concentration of 2.5 mg/kg; type: functional
[12] = system: Mus musculus; assay: Antagonistic activity against scopolamine-induced behavioral deficits in mice by subcutaneous administration at a concentration of 0.04 mg/kg; type: functional
[13] = system: Mus musculus; assay: Antagonistic activity against scopolamine-induced behavioral deficits in mice by subcutaneous administration at a concentration of 0.02 mg/kg; type: functional

SMILES	IC50 [1] [µM]	IC50 [2] [µM]	ED50 [3] [mg/kg]	Response [4] [%]	Response [5] [%]	Response [6] [%]	Response [7] [%]	Response [8] [%]	Response [9] [%]	Response [10] [%]	Response [11] [%]	Response [12] [%]	Response [13] [%]
Clc1cccn1Nc1ccncc1	76.2	13	> 20										
CN(c1ccncc1)n1cccc1	70	13	> 20	1	29								
CN(c1ccncc1)n1cccc1C=O	52	24	> 20			27	50	53	31	60	50		
CCc1cccn1N(C)c1ccncc1	22	6.4	> 20			20			27				
CC(=O)N(c1ccncc1)n1cccc1	> 1000												
CN(c1ccncc1)n1cccc1CCc1ccccc1	8.1	3	> 20					33					
CCCN(c1ccncc1)n1cccc1C=O	51	14	> 20										
C#CCN(c1ccncc1)n1cccc1	76.4	9	> 20				47	27				27	20
CCCN(c1ccncc1)n1cccc1	21.5	6.5	> 20			27	33				27		
C=CCN(c1ccncc1)n1cccc1	27	6.9	> 20			20	20						
CN(c1ccncc1)n1cccc1C#N	295	24	> 20						20	40			
CN(c1ccncc1)n1cccc1/C=C/c1ccccc1	17	1.6	> 20						33		20		
CN(C)CCC=C1c2ccccc2CCc2ccccc21 [AMITRIPTYLINE]	0.3		1.5										
CN(c1ccncc1)n1ccc(C=O)c1	185	33	> 20			33		20	47	29			
c1ccc(CN(c2ccncc2)n2cccc2)cc1	13.5	3.5	> 20				20						
CN(c1ccncc1)n1cccc1Cl	43	6.9	> 20										
CCCN(c1ccncc1)n1ccc(C=O)c1	138	11	> 20										
CN(c1ccncc1)n1cccc1CO	39	26	> 20										
O=Cc1cccn1Nc1ccncc1	721	86	> 20			43	20	27					
CC(O)c1ccn(N(C)c2ccncc2)c1 (centres undefined)	24	11	10				20	20		27			
c1ccn(Nc2ccncc2)c1	184	43	> 20	36		21		21			47		
CCN(c1ccncc1)n1cccc1	120	9.5	> 20										
CCN(c1ccncc1)n1cccc1Cl	33	5.4	> 20			20				36	27		
CC(O)c1cccn1N(C)c1ccncc1 (centres undefined)	173	23	> 20										
CCCCN(c1ccncc1)n1cccc1	12.5	4	> 20			20							
CCCN(c1ccncc1)n1cccc1Cl	8.6	2.6	> 20								27		
